From PubChem BioAssay AID1224921 (Broad Institute, 2016)
Activity calls are given as the source filed them. The rule behind the calls is not given here.

System: Clostridioides difficile clinical isolate growth, OD600, 24 h
Assay: C. difficile growth inhibition, confirmation, 4-point retest (AID 1224921)

Compound	AC50
C[C@@H]1CN([C@H](C)CO)C(=O)c2cc(NS(=O)(=O)c3ccc(Cl)cc3)ccc2O[C@@H](C)CCCCO[C@H]1CN(C)Cc1ccc(C(F)(F)F)cc1	> 60 µM (inactive)
O=C(C[C@H]1CC[C@H]2[C@@H](COC[C@@H](O)CN2C(=O)Nc2ccc(C(F)(F)F)cc2)O1)NCCc1ccncc1	3.88 µM
O=C(C[C@@H]1CC[C@H]2[C@@H](COC[C@H](O)CN2S(=O)(=O)c2ccccc2)O1)NCC1CCCCC1	15.6 µM
CCCNC(=O)C[C@H]1CC[C@@H]2[C@H](COC[C@@H](O)CN2C(=O)Nc2ccc(Cl)c(Cl)c2)O1	2.91 µM
C[C@@H]1CN([C@@H](C)CO)C(=O)c2cc(NC(=O)Nc3cccc4ccccc34)ccc2O[C@@H](C)CCCCO[C@H]1CN(C)CC1CCCCC1	32.1 µM
O=C(Nc1ccc(-c2ccccc2)cc1)[C@H]1[C@H](CO)[C@H]2Cn3c(cccc3=O)[C@H]2N1CC1CCCCC1	> 60 µM (inactive)
O=C(NCC[C@@H]1CC[C@@H](NC(=O)c2cccnc2)[C@H](CO)O1)Nc1ccc(C(F)(F)F)cc1	3.16 µM
CCCNC(=O)C[C@H]1CC[C@H]2[C@@H](COC[C@@H](O)CN2C(=O)Nc2ccc(Cl)c(Cl)c2)O1	2.78 µM
CC(=O)N[C@@H]1CC[C@@H](CCNC(=O)Nc2ccc(C(F)(F)F)cc2)O[C@@H]1CO	8.39 µM
C[C@@H]1CN([C@H](C)CO)C(=O)c2cc(NC(=O)Nc3ccc(C(F)(F)F)cc3)ccc2O[C@@H](C)CCCCO[C@H]1CN(C)Cc1ccccc1	6.56 µM
C[C@H]1CN([C@@H](C)CO)S(=O)(=O)c2ccc(C#Cc3ccc(F)cc3)cc2O[C@@H]1CN(C)C	34.2 µM
O=C(C[C@H]1CC[C@H]2[C@@H](COC[C@@H](O)CN2C(=O)Nc2ccc(Cl)c(Cl)c2)O1)NCc1ccc(Cl)cc1	1.03 µM
CCC(=O)N[C@H]1CC[C@H](CCNC(=O)Nc2ccc(C(F)(F)F)cc2)O[C@@H]1CO	3.05 µM
NC(=O)[C@@H]1[C@H]2C(=O)O[C@H](c3ccccc3)[C@H](c3ccccc3)N2[C@H](c2ccccc2OCCO)[C@@]12C(=O)Nc1ccccc12	32.8 µM
O=C(C[C@H]1CC[C@H]2[C@@H](COC[C@H](O)CN2C(=O)Nc2ccc(C(F)(F)F)cc2)O1)NCC1CCCCC1	2.45 µM
O=C(C[C@@H]1CC[C@@H]2[C@H](COC[C@H](O)CN2C(=O)Nc2ccc(C(F)(F)F)cc2)O1)NCCc1ccncc1	3.46 µM
CCNC(=O)C[C@@H]1CC[C@H]2[C@@H](COC[C@@H](O)CN2C(=O)Nc2ccc(Cl)c(Cl)c2)O1	2.6 µM
C[C@@H]1CN([C@@H](C)CO)C(=O)c2cc(NC(=O)Nc3ccc(C(F)(F)F)cc3)ccc2O[C@@H](C)CCCCO[C@H]1CN(C)Cc1ccccc1	26.9 µM
CO[C@@H]1CN(C)C(=O)c2cc(NC(=O)Nc3ccc(F)cc3)ccc2OC[C@@H](C)NC[C@@H]1C	> 60 µM (inactive)
C[C@@H]1CCCCO[C@@H](CN(C)CC2CC2)[C@H](C)CN([C@H](C)CO)C(=O)c2cc(NC(=O)Nc3ccc(C(F)(F)F)cc3)ccc2O1	15.9 µM
C/C=C/c1ccc2c(c1)O[C@H](CN(C)C(=O)c1ccc(F)cc1)[C@H](C)CN([C@H](C)CO)S2(=O)=O	> 60 µM (inactive)
C[C@@H]1CN([C@H](C)CO)C(=O)c2cccc(NC(=O)Nc3ccc(C(F)(F)F)cc3)c2O[C@@H]1CN(C)C(=O)Nc1ccccc1	32.9 µM
COc1cccc(C#Cc2ccc3c(c2)O[C@@H](CN(C)C)[C@H](C)CN([C@H](C)CO)S3(=O)=O)c1	25.8 µM
O=C(NCC[C@@H]1CC[C@H](NC(=O)C2CC2)[C@H](CO)O1)Nc1ccc(C(F)(F)F)cc1	4.32 µM

Compound	AC50
O=C(C[C@H]1CC[C@H]2[C@@H](COC[C@@H](O)CN2C(=O)Nc2ccc(Cl)c(Cl)c2)O1)NCc1ccc(Cl)c(Cl)c1	1.08 µM
CNC(=O)C[C@H]1CC[C@@H]2[C@H](COC[C@@H](O)CN2C(=O)Nc2ccc(Cl)c(Cl)c2)O1	8.58 µM
O=C(C[C@@H]1CC[C@H]2[C@@H](COC[C@H](O)CN2S(=O)(=O)c2ccc(Cl)cc2)O1)NCc1ccc(Cl)c(Cl)c1	30.9 µM
N#C[C@H]1[C@H](c2ccc(C#Cc3cccc(F)c3)cc2)[C@@H](CO)N1C(=O)C1CCC1	> 16 µM (inactive)
C[C@@H]1CCCCO[C@H](CN(C)C(=O)Nc2ccc(C(F)(F)F)cc2)[C@H](C)CN([C@@H](C)CO)C(=O)c2cc(N(C)C)ccc2O1	> 60 µM (inactive)
O=C(NCC[C@H]1CC[C@@H](NC(=O)Nc2cc(F)ccc2F)[C@H](CO)O1)Nc1ccc(Cl)cc1	18.5 µM
C[C@H](C(=O)N(C)C[C@@H]1OCc2ccccc2-c2ccccc2C(=O)N([C@H](C)CO)C[C@@H]1C)c1ccccc1	> 60 µM (inactive)
C[C@H]1CN([C@@H](C)CO)C(=O)c2cccc(NC(=O)Nc3ccc(C(F)(F)F)cc3)c2O[C@H]1CN(C)C(=O)Nc1ccc(F)cc1	23.4 µM
C[C@@H]1CCCCO[C@@H](CN(C)C)[C@H](C)CN([C@H](C)CO)C(=O)c2cc(NC(=O)Nc3ccc(C(F)(F)F)cc3)ccc2O1	17.5 µM
C[C@@H]1CN([C@@H](C)CO)C(=O)c2cccc(NC(=O)Nc3ccc(F)cc3)c2O[C@@H]1CN(C)Cc1ccc(-c2ccccc2)cc1	< 0.5 µM
COc1ccccc1-c1ccc2c(c1)O[C@H](CN(C)C(=O)c1ccccc1)[C@H](C)CN([C@H](C)CO)S2(=O)=O	> 60 µM (inactive)
C[C@H](CO)N1C[C@H](C)[C@H](CN(C)CC2CCCCC2)OCCCC[C@H](C)Oc2ccc(NC(=O)Nc3cccc4ccccc34)cc2C1=O	29 µM
O=C(C[C@H]1CC[C@H]2[C@@H](COC[C@@H](O)CN2C(=O)Nc2ccc(C(F)(F)F)cc2)O1)NCC1CCCCC1	1.27 µM
C[C@H](CO)N1C[C@H](C)[C@H](CN(C)CC2CCCCC2)OCCCC[C@H](C)Oc2ccc(NC(=O)Nc3ccc(C(F)(F)F)cc3)cc2C1=O	10.9 µM
O=C(C[C@@H]1CC[C@H]2[C@@H](COC[C@@H](O)CN2C(=O)Nc2ccc(Cl)c(Cl)c2)O1)NCc1ccc(Cl)c(Cl)c1	< 0.5 µM
COCC(=O)N1C[C@H](C)[C@H](OC)CN(C)C(=O)c2ccc(NC(=O)NC(C)C)cc2OC[C@H]1C	> 60 µM (inactive)
CO[C@H](CN(C)C(=O)C1CC1)[C@H](C)CN(C(=O)Nc1ccc(C(F)(F)F)cc1)[C@@H](C)CO	14.7 µM
CO[C@H](CN(C)S(=O)(=O)c1cn(C)cn1)[C@H](C)CN(C(=O)Nc1ccc(C(F)(F)F)cc1)[C@H](C)CO	6.25 µM
O=C(Nc1ccc(-c2ccccc2)cc1)[C@@H]1[C@@H](CO)[C@@H]2Cn3c(cccc3=O)[C@@H]2N1CC1CCCCC1	> 60 µM (inactive)
CO[C@H]1CN(C)C(=O)c2cc(NC(=O)Nc3cc(Cl)cc(Cl)c3)ccc2OC[C@@H](C)NC[C@@H]1C	14.7 µM
CS(=O)(=O)N1[C@H](C#N)[C@@H](c2ccc(C#CC3CCCC3)cc2)[C@@H]1CO	> 70 µM (inactive)
CO[C@H]1CN(C)C(=O)c2ccc(NC(=O)Nc3ccc(Cl)c(Cl)c3)cc2OC[C@H](C)NC[C@@H]1C	1.2 µM
O=C(C[C@H]1CC[C@H](NC(=O)CN2CCOCC2)[C@@H](CO)O1)NCc1cccc(F)c1	> 60 µM (inactive)
CO[C@@H]1CN(C)C(=O)c2cc(NC(=O)Nc3ccc(Cl)c(Cl)c3)ccc2OC[C@@H](C)NC[C@@H]1C	4.25 µM

Compound	AC50
CC(=O)N[C@H]1CC[C@H](CCNC(=O)Nc2ccc(C(F)(F)F)cc2)O[C@@H]1CO	9.65 µM
O=C(NCC[C@H]1CC[C@@H](NC(=O)C2CC2)[C@H](CO)O1)Nc1ccc(C(F)(F)F)cc1	9.05 µM
O=C(C[C@H]1CC[C@H]2[C@@H](COC[C@H](O)CN2C(=O)Nc2cc(Cl)cc(Cl)c2)O1)N1CCCCC1	3.29 µM
O=C(C[C@@H]1CC[C@@H]2[C@H](COC[C@H](O)CN2C(=O)Nc2ccc(Cl)c(Cl)c2)O1)NCc1ccc(Cl)cc1	0.915 µM
C[C@@H]1CN([C@H](C)CO)C(=O)c2cc(NC(=O)Nc3ccc(C(F)(F)F)cc3)ccc2O[C@@H](C)CCCCO[C@@H]1CN(C)CC1CCCCC1	14.6 µM
CO[C@@H](CN(C)C(=O)C1CC1)[C@@H](C)CN(C(=O)Nc1ccc(C(F)(F)F)cc1)[C@@H](C)CO	3.31 µM
CO[C@@H]1CN(C)C(=O)c2cc(NC(=O)Nc3ccc(C(F)(F)F)cc3)ccc2OC[C@H](C)NC[C@H]1C	17.8 µM
Cc1ccc(S(=O)(=O)N[C@H]2CC[C@@H](CCNC(=O)Nc3ccc(Cl)cc3)O[C@H]2CO)cc1	18.2 µM
C[C@@H]1CCCCO[C@@H](CN(C)C(=O)CCCN(C)C)[C@H](C)CN([C@H](C)CO)C(=O)c2cc(NC(=O)Nc3ccc(C(F)(F)F)cc3)ccc2O1	7.16 µM
CO[C@@H](CN(C)Cc1cc(F)ccc1F)[C@@H](C)CN(C(=O)Nc1ccc(C(F)(F)F)cc1)[C@H](C)CO	6.79 µM
O=C(C[C@@H]1CC[C@H]2[C@@H](COC[C@@H](O)CN2C(=O)Nc2cc(Cl)cc(Cl)c2)O1)N1CCCCC1	6.58 µM
C[C@@H]1CN([C@@H](C)CO)C(=O)c2cccc(NC(=O)Nc3ccc(F)cc3)c2O[C@@H]1CN(C)Cc1ccc(C(F)(F)F)cc1	2.37 µM
C[C@@H]1CN([C@H](C)CO)C(=O)c2cc(C#Cc3ccccc3F)cnc2O[C@H]1CN(C)C	23.3 µM
CO[C@H]1CN(C)C(=O)c2ccc(NC(=O)c3nc4ccccc4s3)cc2OC[C@@H](C)N(Cc2ccncc2)C[C@@H]1C	30.8 µM
CCNC(=O)C[C@@H]1CC[C@@H]2[C@H](COC[C@H](O)CN2C(=O)Nc2ccc(Cl)c(Cl)c2)O1	4.07 µM
COc1ccccc1CNC(=O)C[C@H]1CC[C@H]2[C@@H](COC[C@H](O)CN2C(=O)Nc2ccc(C(F)(F)F)cc2)O1	12 µM
CO[C@H]1CN(C)C(=O)c2cc(NC(=O)Nc3cc(Cl)cc(Cl)c3)ccc2OC[C@@H](C)NC[C@H]1C	9.49 µM
CO[C@H]1CN(C)C(=O)c2ccc(NC(=O)Nc3cc(Cl)cc(Cl)c3)cc2OC[C@@H](C)NC[C@@H]1C	15.9 µM
O=C(C[C@@H]1CC[C@H]2[C@@H](COC[C@@H](O)CN2CC2CCCCC2)O1)NCc1ccc(Cl)cc1	> 60 µM (inactive)
O=C(C[C@@H]1CC[C@@H]2[C@H](COC[C@@H](O)CN2S(=O)(=O)c2ccccc2)O1)NCC1CCCCC1	15.2 µM
O=C(C[C@H]1CC[C@H]2[C@@H](COC[C@H](O)CN2C(=O)Nc2ccc(Cl)c(Cl)c2)O1)NC1CCC1	2.03 µM
CN(C)CC(=O)N[C@H]1CC[C@H](CCNC(=O)Nc2ccc(C(F)(F)F)cc2)O[C@H]1CO	10.9 µM
CCCNC(=O)Nc1ccc2c(c1)C(=O)N(C)C[C@@H](OC)[C@@H](C)CN(C)[C@H](C)CO2	> 60 µM (inactive)
